Assay results published in patent US20130150430A1, “Methods for Impairing the P53/HDM2 Auto-Regulatory Loop in Multiple Myeloma Development Using mIR-192, mIR-194 and mIR-215” (THE OHIO STATE UNIVERSITY, priority 2011, published 2013).

Experiments:
MM1s and NCI-H929 cells = test: Cell cycle analysis by flow cytometry; assay type: cell-based, human; details: 48 hr of transfection after nocodazole synchronization; scrambled-transfected ~30%
Description: FIG. 3G, FIG. 3H, FIG. 31, FIG. 3J: Flow cytometry analysis in MM1s (FIG. 3G), NCI-H929 (FIG. 3H) and KMS28BM (FIG. 31) cells (miR-192, miR-194, miR-215 and Scr transfected) at 48 hr of transfection, after first being arrested and synchronized in G2/M phase by Nocodazole for 16 hr. Apoptosis in KMS28BM was evaluated by caspase-3 activity (FIG. 3J). All experiments were performed in triplicate ±SD.
Nocodazole was (Sigma-Aldrich) was dissolved in DMSO as a stock solution of 10 mg/ml for cell cycle arrest in G2/M phase. Cells were first arrested and synchronized in G2/M phase by growth in 80 nM nocodazole for 16 hr. Cells were then washed and fresh medium added. After 6 hr, cell cycle analysis was performed by propidium iodide staining. Corresponding amounts of DMSO alone were added in control experiments. […] For DNA content analysis, cells were fixed in methanol at −20° C., washed again, rehydrated, re-suspended in PBS containing 50 μg/ml propidium iodide (PI) and 50 μg/ml RNase A, and analyzed by flow cytometry (Becton Dickinson). […] After the treatment the cells were analyzed using Caspase-Glo 3 Assay kit (Promega) according to the manufacturer's instructions. Continuous variables were expressed as mean values ± standard deviation (s.d.).

GFP+/Luc+ MM1S cells = test: In vivo homing model, iv injected transfected MM1S cells plus weekly iv miRNA; parameters: species or system NOD-SCID mice; details: for tumor burden (bioluminescence imaging): 5 wk post-injection, 10 μg iv weekly for 4 wk, vs Scr; for bone marrow engraftment of MM1s (human CD-138+ cells by FACS): 35 days after injection, Scr-treated mice ~25±15%
Description: FIG. 7C: In vivo confocal imaging. 8×10^6GFP+/Luc+ MM1s cells were transfected using either pre-miRNA-192, miR-194, miR-215 and Scr RNA oligos and then iv injected into mice immediately after transfection. After 1 wk the mice were miRNAs iv injected (10 ug) once a wk for 4 wk and the bioluminescence intensity was assessed before every injection.
FIG. 7D: Representative bioluminescence imaging (BLD after 5 wk from the injection.
FIG. 7E: Bone marrow cells from the mice used for the experiment were isolated and human CD-138 positive cells (engrafted cells) were detected using anti-CD-138 antibody by flow cytometry (P2 fraction).
As shown in FIG. 7B and FIG. 21C, IGF-1 (50 ng/ml) stimulated migration of MM cells, MM1s and RPMI-8226. To further examine the role of miRNA-192, miR-215 and miR-194 in MM cells, the inventors investigated the effect of these miRNAs on migration in vivo, using a homing model (Roccaro et al., Blood, 113:6669-6680 (2009)). Nine NOD-SCID mice (for each group) were intravenously injected with 8×10^6 of pre-miRNA-192-, -194 and -215 or Scr probe-transfected GFP^+/Lue^+ MM1S cells. One wk later, mice were iv-injected every week for 4 wk with an individual miRNA or Scr dissolved in PBS (10 μg for each mouse).
Mice were injected with 75 mg/kg of Luciferin (Xenogen, Hopkington, Mass.), and tumor growth was detected by bioluminescence 10 min after the injection. The home-built bioluminescence system used an electron multiplying CCD (Andor Technology Limited, Belfast, United Kingdom) with an exposure time of 30 sec, and an electron multiplication gain of 500 voltage gain×200, 5-by-5 binning, and with background subtraction. Images were analyzed using Image-J software (National Institutes of Health, Bethesda, Md.).
Animal studies were performed according to institutional guidelines. For the sub-cutaneous engraftment model 8 wk old male athymic nu/nu mice (Charles River Laboratories, Wilmington, Mass.) were maintained in accordance with IACUC procedures and guidelines. 8×10^6 of GFP/Luc+MM1s cells were suspended in 0.10 ml of extracellular matrix gel (BD Biosciences) and the mixture was injected subcutaneously into the right flank. […] Measurements of xenograft growth were performed, and tumor volume was estimated using the formula 4/3 a (L*W*H/8). Tumor size was assessed by digital caliper. […] Tumor size was assessed every 7 days by, bioluminescence images. Thirty-five days after injection, mice were analyzed by bioluminescence images and then sacrificed. MM1s bone marrow isolated cells were stained with anti-human CD-138 antibody (BD) and analyzed by FACS analysis. Statistical significance of differences between control and treated animals was evaluated using Student's t test. […]

miR-215: microRNA, p53-activated, down-regulated in MM; transfected as miRNA precursor (Ambion) or lentivector; SEQ ID NO:58 (AUGACCUAUGAAUUGACAGAC; listed as RNA, chemistry not given here; listed as Homo sapiens)
cells in G0/G1 arrest (MM1s and NCI-H929 cells): ~60% | tumor burden (bioluminescence imaging) (GFP+/Luc+ MM1S cells): nearly nonexistent | bone marrow engraftment of MM1s (human CD-138+ cells by FACS) (GFP+/Luc+ MM1S cells): 2±2%

miR-192: microRNA, p53-activated, down-regulated in MM; transfected as miRNA precursor (Ambion) or lentivector; SEQ ID NO:56 (CUGACCUAUGAAUUGACAGCC; listed as RNA, chemistry not given here; listed as Homo sapiens)
cells in G0/G1 arrest (MM1s and NCI-H929 cells): ~60% | tumor burden (bioluminescence imaging) (GFP+/Luc+ MM1S cells): nearly nonexistent | bone marrow engraftment of MM1s (human CD-138+ cells by FACS) (GFP+/Luc+ MM1S cells): 4±2%
